The target in data set [1] is T1, GST-Pdia4 (Homo sapiens, UniProt P13667).
T1 construct: made in house; host or cells: E. coli BL21 DE3 pLysS
T1 sequence (P13667 21-645): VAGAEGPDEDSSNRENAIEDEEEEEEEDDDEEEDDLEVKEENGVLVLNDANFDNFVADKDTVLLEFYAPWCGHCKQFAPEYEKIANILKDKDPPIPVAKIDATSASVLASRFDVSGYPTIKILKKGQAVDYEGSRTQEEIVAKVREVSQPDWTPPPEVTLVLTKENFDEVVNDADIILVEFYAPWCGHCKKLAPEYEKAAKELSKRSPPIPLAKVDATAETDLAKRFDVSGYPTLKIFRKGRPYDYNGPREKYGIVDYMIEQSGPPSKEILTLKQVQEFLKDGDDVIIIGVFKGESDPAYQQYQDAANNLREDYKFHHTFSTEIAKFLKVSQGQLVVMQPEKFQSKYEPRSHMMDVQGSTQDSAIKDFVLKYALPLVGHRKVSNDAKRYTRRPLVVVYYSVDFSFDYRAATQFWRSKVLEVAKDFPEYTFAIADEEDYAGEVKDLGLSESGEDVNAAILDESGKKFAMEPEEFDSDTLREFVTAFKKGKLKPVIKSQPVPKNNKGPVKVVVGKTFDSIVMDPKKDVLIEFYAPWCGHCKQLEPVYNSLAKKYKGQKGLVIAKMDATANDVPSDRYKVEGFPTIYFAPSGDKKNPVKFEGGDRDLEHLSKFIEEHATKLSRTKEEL
Put plainly: Pull down assay of GST fusion proteins with BCP (avidin-POD blot). Type of data set: binding. As to conditions: 2-mercaptoethanol added to the incubation. Here is the method: (§1) pGEX4T3-Hspa5, pGEX4T3-Pdia4, and pGEX4T3-TecSH3 were obtained by cloning human Hspa5 cDNA, human Pdia4 cDNA and the SH3 domain of mouse Tec cDNA to a pGEX4T3 vector, respectively. GST fusion proteins were purified from the bacterial host E. coli BL21 DE3 pLysS, which harbored the above constructs, according to the manufacturer's instructions (Amersham Biosciences, NJ, USA). Glutathione agarose bead-bound GST fusion proteins (0.15 μg) were incubated with DMSO vehicle or BCP (0.026 μg) for overnight. The proteins were separated by SDS-PAGE and blotted with avidin-POD. For competition assays, CP (0.16 μg (10-fold) and 0.81 μm (50-fold)) or CPA (0.09 μg (10-fold) and 0.45 μm (50-fold)) was added to the above incubation. For interference assay, 2-mercaptoethanol (2.2 mg) was added to the incubation. To test effect of CPA on disulfide isomerase activity of GST-Pdia4, reduced BPTI (0.39 μg) was incubated with redox buffer in the presence of vehicle, 5.64 μg GST-Pdia4 or 5.64 μg GST-Pdia4 plus CPA (0.33 μg). Enzymatic activity of GST-Pdia4, shown as fraction remaining (%), was determined by the conversion of the reduced BPTI into disulfide intermediates as described (Satoh, M., et al. (2005) Cell Stress Chap. 10(3), 211-220).

For a further data set, the system named is T cell. As to conditions: cited from earlier work.
For data set [2], the system named is Jurkat cells. Put plainly: WST-1 assay (cell viability / growth inhibition). The format is cell-based, human. As to conditions: WST-1, 24 hour incubation. Here is the method: WST-1 assays were performed to measure cell viability. Briefly, Jurkat cells (5×10^3) were grown in 100 μl per well. After 24 hour incubation with DMSO or CP derivatives, the cells were incubated with WST-1 at 37° C. for 30 minutes and characterized by 440 nm absorption. To stain BCP-bound proteins of Jurkat cells, 30 μM of DMSO, biotin and BCP was incubated with Jurkat cells for 24 hours, respectively. After washing, the cells underwent surface or intracellular staining with avidin-PE-TR (Caltag, Calif., USA), followed by fluorescence activated cell sorting (FACS) analysis. The FACS data were processed using FCS express 3.0 software (De Novo Inc, CA, USA).
(In general: Tetrazolium dyes change colour on reduction, which living cells bring about.)

Data set [3] deals with Jurkat cells. Put plainly: Cell growth and death by counting living and dead cells with eosin Y. The format is cell-based. The conditions noted are these: for Jurkat cell growth: indicated concentrations, 6 days. As for the experimental part:
(§2) FIGS. 1A-C Effect of cytopiloyne (CP) and cytopiloyne aglycone (CPA) on cell growth, death and proliferation. FIG. 1A-B are graphs showing effects of CP and CPA on growth and death of Jurkat cells. Jurkat cells were grown in RPMI medium in the presence of DMSO (−), CP and CPA at the indicated concentrations for 6 days. Numbers of living cells (FIG. 1A) and dead cells (FIG. 1B) were counted by using eosin Y and hematocytometer. Growth (%) is defined as 100% multiplied by the ratio of the living cell number with compound treatment to that with the control treatment. Death (%) is defined as 100% multiplied by the ratio of the dead cell number to a total of cells (both living and dead). FIG. 1C is a graph showing effect of CP and CPA on proliferation of Jurkat cells. Jurkat cells, which were already labeled with AFSE, were grown under the same condition as the Jurkat cells shown in FIGS. 1A-B. Mean fluorescent intensity (MFI) of the cells on days 0, 2, 4 and 6 were determined using FACS.
Jurkat cells were infected with different lentiviral particles 2 days prior to use. The cells were divided into 3 aliquots. One aliquot was tested for cell growth for 6 days and the number of live and dead cells was calculated using eosin Y. Another aliquot was stained with AFSE, monitored for cell proliferation for 6 days and followed byFACS analysis. Another aliquot was pulsed with 5-bromo-2-deoxyuridine (BrdU) for 30 minutes and chased for 0 to 48 hours. The cells underwent intracellular staining with anti-BrdU antibody and FACS analysis. The other aliquot was tested for caspase activity. Caspase 3/7 fluorescent substrate was incubated with 1 μg of total lysate and caspase activity, shown in relative light unit (RLU), was measured with Victor V luminescence counter. To evaluate in vivo tumor growth, lentivirally infected Jurkat cells (1×10^6) were subcutaneously inoculated into scid/beige mice. Tumor incidence, tumor size and survival rate of the tumor-bearing mice were scored.

The test system of data set [4] is Jurkat cells. The data set can be described thus: AFSE cell proliferation assay (FACS). The format is cell-based, human. The conditions noted are these: low doses, up to 6 days. As for the experimental part:
as §2
Jurkat cells were infected with different lentiviral particles 2 days prior to use. […] One aliquot was tested for cell growth for 6 days and the number of live and dead cells was calculated using eosin Y. Another aliquot was stained with AFSE, monitored for cell proliferation for 6 days and followed byFACS analysis. […] Tumor incidence, tumor size and survival rate of the tumor-bearing mice were scored.

The target in data set [5] is T1, GST-Pdia4. The data set can be described thus: Competition assay for binding of GST-Pdia4 and BCP. The conditions noted are these: 10-fold and 50-fold excess. Here is the method: as §1
For data set [6], the system named is human umbilical vein endothelial cells. As to conditions: cited from earlier work.
Data set [7] concerns the target T1, GST-Pdia4. Put plainly: Disulfide isomerase activity of GST-Pdia4 with reduced BPTI. The conditions noted are these: reduced BPTI substrate, redox buffer. Type of data set: biochemical. Here is the method: as §1
The target in data set [8] is T1, GST-Pdia4. Put plainly: MS/MS analysis of GST-Pdia4/CPA adduct. The format is binding. As to conditions: 24 hours, LC/MS/MS. Here is the method:
Band 1 were cut from the coomassie blue gel and subjected to in gel digestion. Briefly, the gel was dehydrated with acetonitrile, vacuum dried, and rehydrated with ammonium bicarbonate at 37° C. for 1 hour. After alkylation with iodoacetamide, the gel was suspended with 25 mM ammonium bicarbonate containing trypsin at 37° C. for 16 hours. Tryptic peptides were analyzed with LC-nanoESI-MS/MS system. Briefly, the peptides were trapped and desalted isocratically on an LC-Packings PepMap™ C18 μ-Precolumn™ Cartidge (300 μm i.d.×5 mm; Dionex, Calif., USA) for 2 minutes with 0.1% formic acid. The peptides were separated on a C18 capillary column (15 cm×75 μm i.d.) packed with 5 μm, Zorbax 300 SB C18 paticles (Micro-Tech Scientific, Calif., USA), eluted using a 40 minute fast gradient of 5% to 80% acetonitrile containing 0.1% formic acid and subjected to Micromass Q-TOF Ultima™ API mass spectrometer, equipped with an ESI source. After data acquisition, MS/MS spectra for the sample were combined and querred against non-redundant protein database using Mascot program (Matrix Science, MA, USA). For MS/MS analysis of GST-Pdia4 and GST-Pdia4/CPA adduct, GST-Pdia4 (200 μg) was incubated with DMSO or CPA (24 μg) for 24 hours. The proteins underwent LC/MS/MS analysis.

The subject of data set [9] is TS/A, mammary gland carcinoma. Put plainly: Cell death of TS/A mammary gland carcinoma. Type of data set: cell-based.
The next data set relates to tumor cell. The conditions noted are these: cited from earlier work.

“Also recorded” adds a separate entry of the source. Like-named read-outs stand apart in the source and are kept apart here.

`OCCS` [2-mercaptoethanol]: the “interference of GST-Pdia4/BCP interaction by reducing agent” value at GST-Pdia4 [1] is “significantly diminished the interplay of GST-Pdia4 and BCP”.

Turning to `CC#CC#CC#CC#CCCC(CO)O[C@@H]1O[C@H](CO)[C@@H](O)[C@H](O)[C@H]1O` (some centres unmarked) [CP, cytopiloyne], the T cell proliferation result in the data set on T cell was “showed an inhibition of T cell proliferation”. Besides, the “half maximal inhibitory concentration (IC50) for growth inhibition of Jurkat cells” value with Jurkat cells [2] is 52.8 µg/mL. In addition, in the data set with Jurkat cells [3], the “cytotoxicity at low doses” value is “did not show significant cytotocxicity” and the Jurkat cell growth entry is recorded as “inhibited Jurkat cell growth in a dose-dependent manner”. In addition, the Jurkat cell proliferation entry in the data set on Jurkat cells [4] is recorded as “significantly suppressed Jurkat cell proliferation”. Also, on GST-Pdia4 [5], the “interference with interaction between BCP and GST-Pdia4” value was “could interfere with the interaction between BCP and GST-Pdia4 at a dose-dependent manner”.

In the case of `CC#CC#CC#CC#CCCC(O)CO` (centres unmarked) [CPA, cytopiloyne aglycone], in data set [6], the “cell death of human umbilical vein endothelial cells” value was “promoted cell death”. The “disulfide isomerase activity of GST-Pdia4” value at GST-Pdia4 [7] was “inhibited this activity”. Also, in the data set with Jurkat cells [2], the “half maximal inhibitory concentration (IC50) for growth inhibition of Jurkat cells” value came out at 2.5 µg/mL. Further, the “cytotoxicity at low doses” value in the data set on Jurkat cells [3] (CPA from 0.7 to 1.3 μg/ml) is recorded as “did not show significant cytotocxicity”. The Jurkat cell growth entry in the data set with Jurkat cells [3] is listed as “inhibited Jurkat cell growth in a dose-dependent manner”. Also, the “covalent adduct of CPA on GST-Pdia4” value on GST-Pdia4 [8] is reported as “adducted to two cysteine residues of the second CGHC motif of Pdia4”. Further, the Jurkat cell proliferation result in the data set with Jurkat cells [4] is “significantly suppressed Jurkat cell proliferation”. Besides, the “interference with interaction between BCP and GST-Pdia4” value on GST-Pdia4 [5] was “could interfere with the interaction between BCP and GST-Pdia4 at a dose-dependent manner; also recorded: more effective for the interference than CP”. In data set [9], the “cell death of TS/A” value is “induce cell death”.

Turning to bacitricin, the tumor cell death entry in the data set on tumor cell was “cause tumor cell death”.

The values above are taken from patent publication US9382330B2, “Pdia4, target of cytopiloyne derivatives, for tumor diagnosis and treatment” (ACADEMIA SINICA, priority 2010, dated 2016).
